Data published in patent publication US20140148482A1, “METHOD FOR SCREENING ANTI-CANCER DRUGS AND METHOD OF CANCER TREATMENT” (National Taiwan University, priority 2012, published 2014).
Where two headings read alike, the source gives them in different places.

Key:
[1] = system: GADD45β mRNA in Huh-7 cells; test: GADD45β mRNA induction in Huh-7 cells, quantitative RT-PCR; assay type: cell-based, human; details: 24 hours; for GADD45β relative gene expression, Mean: Huh-7 cells, 10 μM, reference control group = 100%; for GADD45β mRNA expression induction: Huh-7, 10 uM, FIG. 4B
Method: (§1) Huh-7 cells, were added with 10 μM of the candidate compound and co-cultured under the same conditions for 24 hours. Sorafenib (10 μM) is used as a positive control group, and Huh-7 cells without compound treatment is used as the reference control group. mRNA levels were assessed through quantitative RT-PCR.
(§2) RNA was extracted using a Trizol reagent (Invitrogen, San Diego, Calif.). cDNAs were synthesized from total RNA (1 μg) using a High Capacity cDNA Archive kit (Applied Biosystems, Foster City, Calif.) and quantified using the TaqMan-Universal or SYBR Green PCR Master Mix (Applied Biosystems, Foster City, Calif.) on an ABI PRISM 7900 Sequence Detection System (Applied Biosystems, Foster City, Calif.). The primers for the GADD45β, GADD45γ and c-jun genes were purchased from Applied Biosystems (ABI TaqMan assay ID: Hs00169587_ml, Hs00198672_ml and Hs00277190_s1). Primers for the hypoxanthine phosphoribosyltransferase (HPRT; sense 5′-[…]-3′ and antisense 5′-[…]-3′) gene were used as endogenous controls. Conditions for PCR were as follows: 50° C. for 2 minutes, 95° C. for 10 minutes, and then 40 cycles of 95° C. for 15 seconds (denaturation) and 60° C. for 1 minute (annealing/extension). The relative mRNA amount of the target/control genes was calculated using the ΔCt (threshold cycle) method: relative expression=2−ΔCt, where ΔCt=Ct (target gene)−Ct (control gene). The gene expression of the reference control group is as 100%.
The effects of GADD45β mRNA induction by different concentrations of the candidate compounds were tested.

[2] = system: c-jun mRNA in Huh-7 cells; test: c-jun mRNA induction in Huh-7 cells, quantitative RT-PCR; assay type: cell-based, human; details: 10 μM, 24 hours, reference control group = 100%
Method: as §1, §2

[3] = system: GADD45γ mRNA in Huh-7 cells; test: GADD45γ mRNA induction in Huh-7 cells, quantitative RT-PCR; assay type: cell-based, human; details: for screening criterion: increased expression of GADD45 family: 300% or above of GADD45γ expression, 800% or above of GADD45β expression, or both, Table 1; for GADD45γ relative gene expression, Mean: Huh-7 cells, 10 μM, 24 hours, reference control group = 100%
Method: as §1, §2
(§3) SC-20 was then tested for GADD45β, GADD45γ and c-Jun mRNA in sorafenib-sensitive (Huh-7) and sorafenib-resistant (Huh-7R) cell lines. The cell culture and the steps of SC-20 treatment were as described above. The concentration of SC-20 and was 10 μm. Said mRNA was measured via qRT-PCR.
as §2, with “Hs00277190_sl).” for “Hs00277190_s1).”, “gene).” for “gene). The gene expression of the reference control group is as 100%.”

[4] = system: HCC cells (Huh-7, Hep3B, Huh-7R); test: MTT cell viability of HCC cells (FIG. 2A); assay type: cell-based, human; details: 72 hours, especially in sorafenib-resistant cell lines (Hep3B and Huh-7R)
Method: (§7) Cell viability was assessed using an MTT (3-(4,5-dimethylthiazol-2-yl)-2,5-diphenyltetrazolium bromide) assay
(§8) The HCC cell line, Hep3B, was obtained from the American Type Culture Collection (ATCC), and the Huh-7 cell line was from the Health Science Research Resources Bank. Cells were cultured in DMEM, containing 10% fetal bovine serum, penicillin (100 units/mL), streptomycin (100 μg/mL), L-glutamine (2 mmol/L), and sodium pyruvate (1 mmol/L) at 37° C. in a humidified incubator containing 5% CO2. A sorafenib-resistant cell line, Huh-7R, was generated through continuous treatment of Huh-7 cells with sorafenib up to 10 μmol/L.Human umbilical vein endothelial cells (HUVEC) were procured from ScienCell Research Laboratories, CA. HUVECs were maintained in endothelial cell culture medium (ScienCell) to selectively promote growth at 37° C. in a 5% CO2 incubator.
(§9) Then the cells were collected and measured via an MTT assay.

[5] = system: Huh-7 cells; test: MTT cell viability, Huh-7; assay type: cell-based, human; details: sorafenib-sensitive Huh-7, 72 hours, FIG. 5A
Method: as §7
The HCC cell line, Hep3B, was obtained from the American Type Culture Collection (ATCC), and the Huh-7 cell line was from the Health Science Research Resources Bank. Cells were cultured in DMEM, containing 10% fetal bovine serum, penicillin (100 units/mL), streptomycin (100 μg/mL), L-glutamine (2 mmol/L), and sodium pyruvate (1 mmol/L) at 37° C. in a humidified incubator containing 5% CO2.
Huh-7 and Hep3B cells were treated with sorafenib, SC-3 or SC-20 for 72 hours, and the cell viability was assessed using an MTT assay.

[6] = system: HUVEC (human umbilical venous endothelial cells); test: MTT cell viability, HUVEC; assay type: cell-based; details: 72 hours, especially in 5 uM treatments, FIG. 2B
Method: as §7, §8, §9

[7] = system: GADD45γ mRNA in Huh-7R cells; test: GADD45γ mRNA induction in sorafenib-resistant Huh-7R cells, qRT-PCR; assay type: cell-based, human; details: 10 μm, cut-off more than 300%, FIG. 3B
Method: as §3
as §2, with “Hs00277190_sl).” for “Hs00277190_s1).”, “gene).” for “gene). The gene expression of the reference control group is as 100%.”

[8] = system: p-ERK in Huh-7 cells; test: phospho-ERK protein level by Western blotting, Huh-7; assay type: cell-based, human; details: Huh-7, 24 hours, FIG. 4A
Method: (§4) Total-ERK, and phospho-ERK protein levels in HCC cells after sorafenib, SC-3 or SC-20 treatment at 24 hours. Whole-cell lysates after drug treatment were examined using Western blotting. Whole cell lysates of HCC cells after drug treatment were prepared and quantified as previously described (Ou D L et al. Cancer Res. 2010; 70:9309-18). SDS-PAGE and Western blot analysis were performed to measure protein expression. Signals were visualized using a UVP Imaging System (UVP, Upland, Calif.), or with X-ray film.

[9] = system: p-ERK in Hep3B cells; test: phospho-ERK protein level by Western blotting, Hep3B; assay type: cell-based, human; details: 24 hours, FIG. 4A
Method: as §4

[10] = system: Huh-7 cells; test: Apoptosis induction (Sub-G1) by flow cytometry; assay type: cell-based, human; details: Huh-7, FIGS. 5B and 5C
[11] = system: Huh-7 xenograft; test: Subcutaneous xenograft model of HCC, Huh-7; assay type: in vivo, mice; details: SC-20 20 mg/kg/d vs sorafenib 50 mg/kg/d
Method: (§5) The protocol for the in vivo studies was approved by the Institutional Animal Care and Use Committee of College of Medicine, National Taiwan University. All the animal studies were performed according to the criteria outlined in the Guide for the Care and Use of Laboratory Animals prepared by National Academy of Sciences and published by NIH. Male BALB/c athymic (nu+/nu+) mice were inoculated subcutaneously with Huh-7 cells or Huh-7R cells (˜1×10^6). When the tumor volume reached ˜100 mm3 [volume (mm3)=(width)2×length×0.5], the mice were randomized into six treatment groups (n≧6 in each group): (a) vehicle control, (b) SC-20: 5 mg/kg/d, (c) SC-20: 10 mg/kg/d, (d) SC-20: 20 mg/kg/d, (e) SC-20: 50 mg/kg/d and (f) sorafenib: 50 mg/kg/d. Drug treatment was given daily via gavage. Tumor volume and body weight were recorded every 7 days. Tumor images from mice are from sacrifices at 25 days of treatment.
(§6) An additional mice were used to establish xenografts to observe survival time. For these experiments, mice with subcutaneously tumors (100 mm^3) were treated as described above. Survival was monitored until the experiments were terminated due to heavy tumor burden over 2000 mm^3 (FIG. 6C). Tx start, treatment start time; Tx stop, treatment stop time.

[12] = system: Huh-7R xenograft; test: Subcutaneous xenograft model of HCC, Huh-7R; assay type: in vivo, mice; details: SC-20 20 mg/kg/d vs sorafenib 50 mg/kg/d
Method: as §5, §6

[13] = system: BNL-MEA allograft; test: Orthotopic allograft model of HCC, BNL-MEA; assay type: in vivo, mice
Method: The protocol for the in vivo studies was approved by the Institutional Animal Care and Use Committee of College of Medicine, National Taiwan University. All the animal studies were performed according to the criteria outlined in the Guide for the Care and Use of Laboratory Animals prepared by National Academy of Sciences and published by NIH. BALB/c mice were anaesthetized with isoflurane, and a small transverse incision was made in the left abdomen. BNL-MEA cells (˜1.5×10^5) suspended in 20 μl PBS were slowly injected with a 30-gauge needle into the left liver lobe, which was exposed through the incision. After injection, the incision was closed by suture with absorbable material. Five days after the surgery, the mice were randomized to three treatment groups (n≧4 in each group): (a) vehicle control, (b) SC-20 20 mg/kg/d and (c) sorafenib 10 mg/kg/d. Drug treatment was given daily via gavage. Mice sacrificed after twenty-five treatments were used as end-points of the therapeutic effect. In FIG. 7C, the arrows indicated the tumors.

[14] = system: Hep3B cells; test: MTT cell viability, Hep3B; details: for cell viability of Hep3B (percentage of surviving cells): 72 hours of drug treatment, FIG. 2A
Method: as §7
(§10) Cells were cultured in DMEM, containing 10% fetal bovine serum, penicillin (100 units/mL), streptomycin (100 μg/mL), L-glutamine (2 mmol/L), and sodium pyruvate (1 mmol/L) at 37° C. in a humidified incubator containing 5% CO2.
as §9

[15] = system: Hep3B cells; details: human, 72 h
Method: as §7, §10, §9

| Structure (SMILES) | GADD45β relative gene expression, Mean [1] | c-Jun relative gene expression, Mean [2] | screening criterion: increased expression of GADD45 family [3] | GADD45γ relative gene expression, Mean [3] | GADD45β mRNA expression induction [1] | growth inhibition of HCC cells compared with sorafenib [4] | cell viability of Hep3B (percentage of surviving cells) [14] | also measured |
| --- | --- | --- | --- | --- | --- | --- | --- | --- |
| N#Cc1ccc(Oc2ccc(NC(=O)Nc3ccc(Cl)c(C(F)(F)F)c3)cc2)cc1 [SC-1] | 1156.44% | 343.08% | satisfied the increased expression of GADD45 family | 402.46% | – | – | – | – |
| Cc1cc(Oc2ccnc3c([N+](=O)[O-])cccc23)ccc1NC(=O)c1cc(C(F)(F)F)cc(C(F)(F)F)c1 [SC-20] | 1674.94% | 515.47% | satisfied the increased expression of GADD45 family | 364.16% | significantly induced | even more potent than sorafenib | 36.78% | GADD45γ mRNA induction ([3]; sorafenib-sensitive Huh-7, 10 μm, cut-off more than 300%, FIG. 3A): can be induced; cell growth inhibition compared with sorafenib [5]: more potency than sorafenib; growth inhibition of HUVECs compared with sorafenib [6]: even more potent than sorafenib; GADD45γ mRNA induction [7]: can be induced; reduction of p-ERK [8]: incapable of reducing p-ERK; reduction of p-ERK [9]: incapable of reducing p-ERK; apoptosis induction (Sub-G1) compared with sorafenib [10]: more potency than sorafenib in inducing apoptosis; mice survival time ([11]; FIG. 6C): significantly prolong mice survival times more than highly dose of sorafenib; tumor growth inhibition ([11]; daily gavage, FIG. 6A): significantly inhibited tumor growth more than highly dose of sorafenib; mice survival time ([12]; FIG. 6C): significantly prolong mice survival times more than highly dose of sorafenib; tumor growth inhibition ([12]; daily gavage, FIG. 6B): significantly inhibited tumor growth more than highly dose of sorafenib; tumor growth in terms of tumor volume and weight ([13]; BNL-MEA allograft, SC-20 20 mg/kg/d, daily gavage, twenty-five treatments, FIGS. 7A and 7B): significantly inhibited tumor growth; tumor growth inhibition compared with sorafenib ([13]; orthotopic model, SC-20 20 mg/kg/d vs sorafenib 10 mg/kg/d, FIG. 7C): inhibited tumor growth significantly more than sorafenib; cell growth inhibition compared with sorafenib ([14]; sorafenib-resistant Hep3B, 72 hours, FIG. 5A): more potency than sorafenib |
| Cc1cc(Oc2ccnc3c(N)cccc23)ccc1NC(=O)c1cc(C(F)(F)F)cc(C(F)(F)F)c1 [SC-21] | 94.65% | 77.51% | – | 96.65% | – | – | – | – |
| CC(=O)Nc1cccc2c(Oc3ccc(NC(=O)c4cc(C(F)(F)F)cc(C(F)(F)F)c4)c(C)c3)ccnc12 [SC-22] | 340.21% | 183.54% | – | 229.94% | – | – | – | – |
| N#Cc1ccc(Oc2ccc3cccc(NC(=O)Nc4ccc(Cl)c(C(F)(F)F)c4)c3c2)cc1 [SC-72] | 1951.02% | 552.00% | satisfied the increased expression of GADD45 family | 1522.00% | – | even more potent than sorafenib | – | cell viability of Hep3B (percentage of surviving cells) [15]: 15.65% |
| CNC(=O)c1cc(Oc2ccc(NC(=O)Nc3ccc(Cl)c(C(F)(F)F)c3)cc2)ccn1 [sorafenib, Sorafenib, reference compound] | 2226.40% | 447.28% | – | 1377.54% | significantly induced | – | 68.57% | – |
